Where two headings read alike, the source gives them in different places.
How the values were obtained:
[1] = tested on: P. falciparum 3D7; experiment: Antiplasmodial image-based assay, 3D7 strain; type: cell-based, Plasmodium falciparum; conditions: chloroquine-sensitive P. falciparum strain 3D7; for IC50 / inhibition: Plasmodium falciparum; for IC50: control compounds; for % Inhibition @ 60 µM, 3D7 / inhibition: 72 h, 60 µM; for inhibition: 3D7, 72 h
Description: (§1) An anti-plasmodial imaging assay reported by Duffy and Avery was used to examine the antiplasmodial activities of synthetic indoles 25, 26, 36, 37, 38, 40, 41, 43, 45, 46, 47, 48, 50 and 51. All compounds were diluted to […] in DMSO and tested at three increasing concentrations from 0.4 nM–40 μM per log dose in a 16-point CRC ([…]) parasite strains of Plasmodium falciparum. […] Normalised percent inhibition data was obtained using in-plate positive (4 μM DHA) and negative (0.4% DMSO) controls, which were then used to calculate IC50 values. Compounds were incubated in CellCarrier-384 well imaging plates in the presence of 2% parasitemia (3D7 or Dd2) at 0.3% hematocrit in a total assay volume of 50 μL for 72 h at 37 °C, 5% O2, 5% CO2 and 90% N2. After incubation, plates were stained with 4′,6-diamidino-2-phenylindole (DAPI) and imaged using an Opera Phenix high-content imaging system (Revvity, Mulgrave, Victoria, Australia). Images were analysed using Harmony (Revvity) software (version 3), while percent parasite inhibition was calculated using the minimum (0.4% DMSO) and (DHA). IC50 values were determined by plotting % inhibition against log dose and analysed using nonlinear regression and sigmoidal dose-response using GraphPad Prism version 6.

[2] = tested on: P. falciparum Dd2; experiment: Antiplasmodial image-based assay, Dd2 strain; type: cell-based, Plasmodium falciparum; conditions: chloroquine-resistant P. falciparum strain Dd2; for IC50: Plasmodium falciparum, control compounds; for % Inhibition @ 60 µM, Dd2: 72 h
Description: as §1

[3] = biological target: T1, α-chymotrypsin from bovine pancreas (Bos taurus, UniProt P00766); experiment: Serine protease assay, chymotrypsin; type: biochemical
T1 construct: α-chymotrypsin from bovine pancreas (Sigma, C4129); purchased Sigma C4129; host or cells: bovine pancreas
Description: (§2) Serine protease-inhibitory activities for 25–56 were determined in 96 well plates. Each inhibitor was initially tested in duplicate against elastase and chymotrypsin at 10 µM. […] Assays for the inhibition of elastase were undertaken using high-purity porcine pancreatic elastase (Sigma, Melbourne, Victoria, Australia, E0258) in an assay buffer of 50 mM Tris-HCl (pH 8.0) at room temperature. Dilutions of each inhibitor (originally resuspended in DMSO) were prepared in triplicate and then preincubated with 375 ng of elastase for 15 min at room temperature in a total reaction volume of 85 µL. Following this preincubation, 15 µL of 2 mM N-succinyl-Ala-Ala-Ala-p-nitroanilide (Sigma, S4760) in assay buffer was added to each well and kinetic measurement of absorbance at 405 nm (Tecan Spark Plate Reader, Zürich, Switzerland) was undertaken for 30 min. […] Dilutions of each inhibitor were prepared in triplicate and preincubated with 5 µg of chymotrypsin for 10 min at 37 °C in a total reaction volume of 75 µL. After preincubation, 25 µL of 2 mM N-succinyl-Gly-Gly-Phe-p-nitroanilide (Sigma, S1899) was added to each well and kinetic measurement of absorbance at 405 nm was undertaken for 30 min. Inhibitory activity was determined by comparison of the slope of the reaction curve for multiple dilutions of the inhibitor to that of an equivalent solvent control and expressed as IC50 ± standard deviation.

[4] = biological target: T2, porcine pancreatic elastase (Sus scrofa, UniProt P00772); experiment: Serine protease assay, elastase; type: biochemical; conditions: remaining enzyme activity
T2 construct: high-purity porcine pancreatic elastase (Sigma, Melbourne, Victoria, Australia, E0258); purchased Sigma E0258
T2 sequence (P00772 27-266): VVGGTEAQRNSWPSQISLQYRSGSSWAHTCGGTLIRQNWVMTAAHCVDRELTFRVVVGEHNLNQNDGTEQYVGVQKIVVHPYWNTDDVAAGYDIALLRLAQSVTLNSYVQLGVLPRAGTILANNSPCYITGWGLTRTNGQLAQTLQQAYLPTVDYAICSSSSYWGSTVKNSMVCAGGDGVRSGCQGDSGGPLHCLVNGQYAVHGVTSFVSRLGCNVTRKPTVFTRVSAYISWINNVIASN
Description: as §2

[5] = biological target: T3, α-synuclein (Homo sapiens, UniProt P37840); experiment: In vitro α-synuclein affinity MS-binding assay; conditions: 3 h incubation, 5:1 molar ratio, (+)-HRESIMS
T3 construct: α-synuclein protein solutions (10 μM) were prepared in 10 mM ammonium acetate
Description: The synthetic indoles were incubated with α-syn for 3 h at a 5:1 molar ratio, after which a (+)- mode high-resolution MS spectrum was acquired.
α-synuclein protein solutions (10 μM) were prepared in 10 mM ammonium acetate. Synthetic IGAs 25, 26, 34, 41, 45, 46, 51, and 52 (100 μM) were dissolved in 100% MeOH and incubated with α-syn at room temperature for 3 h. Protein-ligand interactions were analysed using (+) HRESIMS calibrated with sodium trifluoroacetate (0.1 mg/mL) with the following parameters: nebuliser 2.0 Bar; dry gas 7 L/min; dry temp 150 °C; funnel I RF 400 Vpp; end plate offset 500 V; capillary 4500 V; ISCID 0.0 ev; ion energy 4.0 eV; transfer time 100 μs; multipole RF 800 Vpp; collision RF 1200 Vpp; prepulse storage 10 μs; spectra rate: 2 × 100 Hz. The resulting spectra were analysed for additional peaks representing complexes formed between α-syn and active compounds.

[6] = biological target: T4, SARS-CoV-2 3CLpro (Severe acute respiratory syndrome coronavirus 2, UniProt P0DTD1); experiment: biochemical
T4 construct: Each well contained 25 nM of SARS-CoV-2 3CL^Pro and eCFP-Venus biosensor (500 nM)

[7] = tested on: HEK293 cells; experiment: HEK293 cell cytotoxicity; type: cell-based; conditions: human embryonic kidney cell line
[8] = 10 µM, remaining enzyme activity

Row | Compound | % enzyme activity @ 10 µM, chymotrypsin [3, 8] | % Inhibition @ 60 µM, HEK293 [7] | % Inhibition @ 60 µM, 3D7 [1] | % enzyme activity @ 10 µM, elastase [4] | % Inhibition @ 60 µM, Dd2 [2] | % inhibition @ 20 µM, No DTT ([6]; no DTT) | % inhibition @ 20 µM, DTT ([6]; with DTT (4 mM)) | also measured
1 | CCN(CC)CCCC(C)Nc1ccnc2cc(Cl)ccc12 (centres unmarked) [Chloroquine, reference compound] | – | – | – | – | – | – | – | IC50 [1]: 77.8 nM; IC50 [2]: 696 nM
2 | O=C(N[C@@H](CSSC[C@H](NC(=O)C(=O)c1c[nH]c2cc(Br)ccc12)C(=O)O)C(=O)O)C(=O)c1c[nH]c2cc(Br)ccc12 [Compound 34, 6-bromoindolyl-3-glyoxyl-L-cystine] | – | – | – | – | – | – | – | remaining activity at 10 µM [3, 8]: 93.1%; remaining activity at 10 µM [4]: 93.5%; binding with α-syn (protein-ligand complexes in MS) [5]: α-syn binding displayed; inhibition at 20 µM ([6]; no DTT, read-out: % inhibition @ 20 µM, No DTT): 86.1%; inhibition at 20 µM ([6]; with DTT (4 mM), read-out: % inhibition @ 20 µM, DTT): 4.6%; IC50 ([6]; no DTT): 6400 nM
3 | O=C(N[C@@H](CO)C(=O)O)C(=O)c1c[nH]c2ccc(Br)cc12 [Compound 43, 5-bromoindolyl-3-glyoxyl-L-serine] | 96.1% | 21.0% | 1.0% | 101.4% | 1.0% | 105.5% | 2.0% | IC50 ([6]; no DTT): 1200 nM
4 | O=C(N[C@@H](Cc1c[nH]c2ccccc12)C(=O)O)C(=O)c1c[nH]c2ccc(Br)cc12 [Compound 45, 5-bromoindolyl-3-glyoxyl-L-tryptophan] | 69.2% | 24.0% | 73.0% | 94.0% | 56.0% | 21.8% | 3.7% | IC50 ([3]; IC50 ± standard deviation): 16300 nM; binding with α-syn (protein-ligand complexes in MS) [5]: α-syn binding displayed
5 | O=C(N[C@@H](Cc1c[nH]c2ccccc12)C(=O)O)C(=O)c1c[nH]c2cc(Br)ccc12 [Compound 47, 6-bromoindolyl-3-glyoxyl-L-tryptophan] | 99.6% | 14.0% | 14.0% | 89.5% | 20.0% | 24.4% | 4.1% | –
6 | O=C(N[C@H](Cc1c[nH]c2ccccc12)C(=O)O)C(=O)c1c[nH]c2cc(Br)ccc12 [Compound 48, 6-bromoindolyl-3-glyoxyl-D-tryptophan] | 83.6% | 16.0% | 99.0% | 91.1% | 97.5% | 20.8% | 2.0% | –
7 | O=C(N[C@H](Cc1ccc(O)cc1)C(=O)O)C(=O)c1c[nH]c2ccc(Br)cc12 [Compound 50, 5-bromoindolyl-3-glyoxyl-D-tyrosine] | 89.2% | 20.5% | 99.0% | 95.3% | 97.5% | 6.1% | 0.9% | –
8 | O=C(N[C@H](Cc1ccc(O)cc1)C(=O)O)C(=O)c1c[nH]c2cc(Br)ccc12 [Compound 52, 6-bromoindolyl-3-glyoxyl-D-tyrosine] | 97.2% | – | – | 97.1% | – | 14.0% | 4.9% | binding with α-syn (protein-ligand complexes in MS) [5]: α-syn binding displayed
9 | CC(C)[C@@H](NC(=O)C(=O)c1c[nH]c2ccc(Br)cc12)C(=O)O [Compound 54, 5-bromoindolyl-3-glyoxyl-D-valine] | 97.3% | – | – | 105.4% | – | 1.3% | 1.0% | –
10 | CC(C)[C@H](NC(=O)C(=O)c1c[nH]c2cc(Br)ccc12)C(=O)O [Compound 55, 6-bromoindolyl-3-glyoxyl-L-valine] | 105.0% | – | – | 88.9% | – | 6.8% | 3.0% | –
11 | CC(C)[C@@H](NC(=O)C(=O)c1c[nH]c2cc(Br)ccc12)C(=O)O [Compound 56, 6-bromoindolyl-3-glyoxyl-D-valine] | 94.0% | – | – | 104.4% | – | 6.8% | 2.7% | –
12 | C[C@H]1[C@@H](O)O[C@@H]2O[C@@]3(C)CC[C@H]4[C@H](C)CC[C@@H]1[C@@]24OO3 [Dihydroartemisinin, reference compound] | – | – | – | – | – | – | – | inhibition [1]: 100%; IC50 [1]: 1.3 nM; IC50 [2]: 1.7 nM
13 | COc1ccc(C[C@H](N)C(=O)N[C@H]2[C@@H](O)[C@H](n3cnc4c(N(C)C)ncnc43)O[C@@H]2CO)cc1 [Puromycin, reference compound] | – | – | – | – | – | – | – | IC50 ([7]; HEK293): 673 nM; IC50 [1]: 79.2 nM; IC50 [2]: 86.5 nM
14 | CCc1nc(N)nc(N)c1-c1ccc(Cl)cc1 [Pyrimethamine, reference compound] | – | – | – | – | – | – | – | inhibition [1]: -10%; IC50 [1]: 14.1 nM

From paper PMC11314621, “Cheminformatics-Guided Exploration of Synthetic Marine Natural Product-Inspired Brominated Indole-3-Glyoxylamides and Their Potentials for Drug Discovery” (Molecules, 2024)
